In US20160175302A1 (AB SCIENCE, priority 2014, published 2016):

Experiments:
[1] = tested on: Gastric cancer cell line AGS; assay: Colorimetric cell proliferation and viability assay (CellTiter-Blue), AGS; settings: 72 h, read-out: IC50, agent alone
[2] = tested on: Gastric cancer cell line HGC-27; assay: Colorimetric cell proliferation and viability assay (CellTiter-Blue), HGC-27; settings: Homo sapiens, HGC-27, 72 h, read-out: IC50, agent alone
[3] = clinically achievable concentrations, plasma; read-out: Cmax (reported / approximate, measured in plasma); cited from earlier work

Row | SMILES | IC50 [1] [µM] | IC50 [2] [µM] | Cmax [3] [µM]
1 | Cc1ccc(NC(=O)c2ccc(CN3CCN(C)CC3)cc2)cc1Nc1nc(-c2cccnc2)cs1 [masitinib, 4-(4-methylpiperazin-1-ylmethyl)-N-[4-methyl-3-(4-pyridin-3ylthiazol-2-ylamino)phenyl]benzamide] | 5 to 10 | 5 to 10 | –
2 | COc1cc([C@@H]2c3cc4c(cc3[C@@H](O[C@@H]3O[C@@H]5CO[C@@H](C)O[C@H]5[C@H](O)[C@H]3O)[C@H]3COC(=O)[C@H]23)OCO4)cc(OC)c1O [Etoposide] | 10 | 20 | ~34
3 | CC[C@]1(O)C[C@H]2CN(CCc3c([nH]c4ccccc34)[C@@](C(=O)OC)(c3cc4c(cc3OC)N(C=O)[C@H]3[C@@](O)(C(=O)OC)[C@H](OC(C)=O)[C@]5(CC)C=CCN6CC[C@]43[C@@H]65)C2)C1 [Vincristin] | > 1 | 0.1 to 1 | –
4 | CCc1c2c(nc3ccc(OC(=O)N4CCC(N5CCCCC5)CC4)cc13)-c1cc3c(c(=O)n1C2)COC(=O)[C@]3(O)CC [Irinotecan] | 20 | > 100 | 1 to 10
5 | O=c1[nH]cc(F)c(=O)[nH]1 [5-FU, 5-fluorouracil] | 100 | 1000 | 60 to 200
